Test results reported in the supplement of paper PMC11551840.

Tests used:
Experiment in all cases: IC50 (cell viability, 72 h) (ln(µM))
BICR10 = system: BICR10
Method: (§1)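 Discovery screen of OSCC cell lines in 1,536-well plates. Cells were treated 24 h after seeding with 7 concentrations spanning a 1,000-fold half-log range for 72 h, and viability was read by CellTiter-Glo 2.0 and normalised to DMSO (1) and medium-only (0) controls. IC50 comes from a two-parameter logistic nonlinear mixed-effects fit and is reported as natural log of IC50 in µM.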

HO-1-u-1 = system: HO-1-u-1
Method: as §1

HSC-2 = system: HSC-2
Method: as §1

HSC-4 = system: HSC-4
Method: as §1

ORL-115 = system: ORL-115
Method: as §1

ORL-136 = system: ORL-136
Method: as §1

ORL-150 = system: ORL-150
Method: as §1

ORL-153 = system: ORL-153
Method: as §1

ORL-156 = system: ORL-156
Method: as §1

ORL-166 = system: ORL-166
Method: as §1

ORL-174 = system: ORL-174
Method: as §1

ORL-188 = system: ORL-188
Method: as §1

ORL-195 = system: ORL-195
Method: as §1

ORL-204 = system: ORL-204
Method: as §1

ORL-207 = system: ORL-207
Method: as §1

ORL-214 = system: ORL-214
Method: as §1

ORL-215 = system: ORL-215
Method: as §1

ORL-48 = system: ORL-48
Method: as §1

PE-CA-PJ15 = system: PE-CA-PJ15
Method: as §1

SAS = system: SAS
Method: as §1

SCC-9 = system: SCC-9
Method: as §1

| Structure (SMILES) | IC50 (ln) (BICR10) | IC50 (ln) (HO-1-u-1) | IC50 (ln) (HSC-2) | IC50 (ln) (HSC-4) | IC50 (ln) (ORL-115) | IC50 (ln) (ORL-136) | IC50 (ln) (ORL-150) | IC50 (ln) (ORL-153) | IC50 (ln) (ORL-156) | IC50 (ln) (ORL-166) | IC50 (ln) (ORL-174) | IC50 (ln) (ORL-188) | IC50 (ln) (ORL-195) | IC50 (ln) (ORL-204) | IC50 (ln) (ORL-207) | IC50 (ln) (ORL-214) | IC50 (ln) (ORL-215) | IC50 (ln) (ORL-48) | IC50 (ln) (PE-CA-PJ15) | IC50 (ln) (SAS) | IC50 (ln) (SCC-9) |
| --- | --- | --- | --- | --- | --- | --- | --- | --- | --- | --- | --- | --- | --- | --- | --- | --- | --- | --- | --- | --- | --- |
| Cc1cc(-c2nc(-c3ccc(OC(F)(F)F)cc3)no2)nn1Cc1ccnc(N2CCN(C3CC3)CC2)c1 [BAY-87-2243] | -1.01 | -1.24 | -1.04 | -5.92 | -5.09 | -0.901 | -2.36 | -0.683 | -0.734 | -2.29 | -0.785 | -0.131 | -1.57 | -2.77 | -2.38 | -0.338 | -2.31 | -1.95 | -1.76 | -3.51 | -3.5 |
| CC[C@@H]1C(=O)N(C)c2cnc(Nc3ccc(C(=O)NC4CCN(C)CC4)cc3OC)nc2N1C1CCCC1 [BI-2536] | -2.78 | -2.33 | -2.87 | -1.33 | -2.1 | 1.66 | -3.5 | -2.08 | -2.91 | -3.02 | -2.58 | -2.94 | -2.26 | -0.226 | -2.92 | -2.28 | -3.45 | -1.8 | -0.628 | -1.93 | 0.0591 |
| CC(C)C[C@H](NC(=O)[C@H](Cc1ccccc1)NC(=O)c1cnccn1)B(O)O [Bortezomib] | -4.95 | -5.69 | -5.55 | -4.5 | -4.36 | -4.79 | -4.88 | -4.84 | -4.46 | -5.43 | -5.44 | -5.03 | -5.04 | -4.52 | -5.3 | -5.37 | -5.32 | -4.47 | -4.28 | -5.88 | -4.18 |
| CC[C@@]1(O)C(=O)OCc2c1cc1n(c2=O)Cc2cc3ccccc3nc2-1 [Camptothecin] | -1.45 | -0.864 | -4 | -3.06 | -1.73 | -1.37 | -3.04 | -3.34 | -2.15 | -3.18 | -2.91 | -3.95 | -2.2 | -3.82 | -4.09 | -4.76 | -2.87 | -2.57 | -2.24 | -4.38 | 1.24 |
| COc1ncc(-c2ccc3nccc(-c4ccnnc4)c3c2)cc1NS(=O)(=O)c1ccc(F)cc1F [Omipalisib] | -2.02 | -3.13 | -4.69 | -0.985 | -1.58 | -2.66 | -4.18 | – | -3.31 | -2.96 | -3.91 | -3.88 | -3.16 | -2.59 | -3.51 | -3.91 | -2.45 | -3.43 | -1.36 | -1.24 | -1.11 |
